Assay results reported in article PMC12977544, “Phenotypic high-throughput screening identifies modulators of gut microbial choline metabolism” (mBio, 2026).

Test system: E. coli MS 200-1
Assay: TMA inhibition in bacterial whole cells (LC–MS/MS of d9-TMA from d9-choline)
Format: cell-based, Escherichia coli MS 200-1
Details: Escherichia coli, MS2001, 1.25 h; 1 mM d9-choline in PBS, 75 min, 37°C, anaerobic
Procedure: For TMA inhibition assays, E. coli and P. mirabilis were grown in NCE medium supplemented with 20 mM choline chloride, A. hydrogenalis was grown in MEGA medium supplemented with 3 mM choline chloride, and C. sporogenes was grown in BHI medium supplemented with 20 mM of choline chloride to induce expression of the cut gene cluster. For MIC assays, all bacteria strains were grown in MEGA medium.
Compounds were stored as 10 mM DMSO stocks at –20°C and diluted in DMSO to prepare varying concentrations of inhibitors for testing. Bacteria were grown anaerobically overnight in media supplemented with choline as described above. Cells were pelleted and resuspended in PBS, and d9-choline chloride was added to a final concentration of 1 mM. The final OD600 of the PBS cell resuspensions is as follows: 0.4 (E. coli), 0.15–0.2 (P. mirabilis), 0.2 (C. sporogenes), and 0.4 (A. hydrogenalis). The resuspended cells were added to 96-well plates containing inhibitors (final concentration of 1% DMSO, with final inhibitor concentrations ranging between 0 and 325 µM). The plates were sealed and incubated for 75 min (or 90 min for P. mirabilis) at 37°C. Following incubation, the plates were removed from the anaerobic chamber and analyzed immediately or kept at –20°C until LC–MS/MS analysis. Each inhibitor concentration was tested in triplicate. EC50 values were calculated with GraphPad Prism by fitting the log(inhibitor) vs response—Variable slope (four-parameter) model for non-linear regression.
Samples were kept frozen until analysis and kept cold on ice during handling due to the volatility of TMA. Bacterial cell resuspensions in PBS were diluted 100-fold in LCMS-grade acetonitrile with 0.1% formic acid to lyse cells, precipitate proteins, and extract metabolites. Samples were centrifuged at 4,000 rpm for 10 min at 4°C to pellet proteins. The supernatants were then further diluted 20-fold in LCMS-grade acetonitrile with 0.1% formic acid, and the resulting solution was analyzed by LC–MS/MS.
LC–MS/MS analysis was performed on an Agilent 1290/6470 Triple Quadrupole LC–MS instrument (Agilent Technologies) using electrospray ionization. The mass spectrometer was operated in multiple reaction monitoring (MRM) mode with positive ionization monitoring. The precursor–product ion pairs used in MRM mode were as follows: m/z 69.1m/z → 49.1 (d9-TMA) and m/z 113.2 m/z → 69.1 (d9-choline). The capillary voltage was set to 4.0 kV, and the fragmentor voltage was set to 30 V (d9-TMA) and 115 V (d9-choline). The collision energy for the precursor–product ion pairs was set to 29 V (d9-TMA) and 21 V (d9-choline). MS^1 resolution was set to wide and MS^2 resolution to unit. The drying gas temperature was maintained at 250°C, with a flow rate of 11 L/min and a nebulizer pressure of 45 psi. The time filter width used was 0.07 min. The injection volume of all samples was 1 μL. Samples were injected onto InfinityLab Poroshell 120 (Agilent) HILIC columns (2.7 μm, 100 mm × 2.1 mm, 100 Å) preceded by InfinityLab Poroshell 120 HILIC guard columns (2.1 mm, 1.9µm UHPLC guard). The LC conditions on the binary pump were as follows: a gradient of 5–35% A increasing over 1.95 min (1.2 mL/min), a gradient of 35–5% A decreasing over 0.05 min (1.6 mL/min), and held at 5% A for 0.5 min (2 mL/min). […] Solvent A was 10 mM ammonium formate with 0.1% formic acid, and solvent B was acetonitrile with 0.1% formic acid. Data analysis was performed with Mass Hunter Workstation Data Acquisition and Qualitative Analysis software (Agilent Technologies).

SMILES: Cc1ccc(-c2cc(C(=O)NCCCN3CCc4ccccc4C3)c(C)[nH]2)cc1C [Compound 5]
- EC50: 12 µM
